Results as given in patent US20240270731A1, “[…]” (ALEBUND PHARMACEUTICALS (HONG KONG) LIMITED, priority 2021, published 2024).

Experiments:
[1] = test system: uninephrectomied db/db mice; experiment: Diabetic nephropathy pharmacodynamic model (uninephrectomied db/db mice)
Protocol: Housing temperature was maintained at 22-26° C. and humidity at 40%-60%. Mice were allowed to access food and water ad libitum. […] Buprenorphine was applied after surgery.
Two weeks after surgery, db/db mice were randomly assigned into 5 groups. Wild type mice were used for the control animals. […] Compounds were orally administrated once per day for 10 weeks.
At the 5th and 9th week after compound administration, mice were placed in metabolic cages for urine collection. Albumin level was measured for 24 hr albumin excretion calculation. At the 10th week after treatment, the animals were sacrificed for kidney dissection. The kidney was fixed in 10% neutral buffed formalin, then paraffin-embedded for histopathological analysis. Glomerulosclerosis was assessed by evaluating glomerular basement membrane, mesangial expansion, nodular sclerosis and glomerulosclerosis.
Graphpad 8.0 software was used for statistical analysis. The difference between the values were analyzed with one-way ANOVA. The difference between histopathological score was analyzed with Kruskal-Wallis nonparameter test.

[2] = test system: rat model of hyperlipidemia induced by high cholesterol diet; experiment: Rat model of hyperlipidemia induced by high cholesterol diet (serum TG, NEFA); assay type: in vivo, Sprague-Dawley rats
Source text: On the day before the start of the administration (Day 0), the animals were divided into 7 groups based on body weights and serum indicators and were continually fed with the high-cholesterol diet. The treatment groups were orally dosed with either compound or vehicle while continuing the high-cholesterol diet for a total of 1 week. The animals were weighed daily before the treatment, and the compounds were given at 9:00-9:30 in the morning based on the body weight of the day.

[3] = test system: rat model of unilateral ureteral obstruction; experiment: Renal injury in rat model of unilateral ureteral obstruction; details: 0.2 mg/kg oral daily, 14 treatment days
Protocol: Housing temperature was maintained at 20-26° C. and humidity at 40%-60%. Rats were fed with a standard chow and allowed to access food and water ad libitum.
The formulation was prepared twice a week.
Vehicle or compounds were administrated by orally gavage daily. Unilateral ureteral obstruction was performed on the second day of compound treatment. Animals in model group, reference group and compound group underwent urethral ligation under isoflurane anesthesia one hour after receiving compound administration. A flank incision was cut to expose the left ureter, and a 4-0 surgical suture was used to perform two-point ligation to achieve urethral obstruction. Ureter was cut between the two ligation points. Animals in the control group were subjected to the same surgical treatment except the ligation and cut.
Rats were sacrificed after 14 days' compound treatment. The obstructed kidney was weighed and collected for histology. The tissue samples were fixed with formalin, and then paraffin embedded. The embedded tissue was sectioned and stained with hematoxylin & eosin and Masson trichrome to assess kidney structure and fibrosis.
The multiple comparison was analyzed with the Kruskal-Wallis non-parameter test. The Dunn's test was used to compare the difference to the model group.

[4] = test system: db/db type 2 diabetes model; experiment: Pharmacodynamics study on the db/db type 2 diabetes model
Source text: 45 db/db mice were evenly divided into 5 groups before the initiation of treatment based on the body weights, serum triglyceride (TG) levels, and random blood glucose levels.
All animals were weighed daily before each dosing and treated daily for 14 consecutive days.
All the data was imported into an Excel file and presented as Mean±SEM. Graphpad Prism 7.0 software was used for data statistical analysis by One-way or Two-way ANOVA, with P<0.05 as the criterion of significant differences.

CO[C@@H](Cc1ccc(OCCc2nc(-c3ccccc3)oc2C)c2ccsc12)C(=O)O (single isomer, unassigned) [Compound 2]
24-hour urinary albumin compared with vehicle ([1]; 5th and 9th weeks after compound administration, 0.1, 0.3, 1 mg/kg oral once per day): significantly decreased
Renal tubular injury (histopathology) ([1]; all dosage levels (0.1, 0.3, 1 mg/kg), 10 weeks): improved the tubular injury at some extend
Glomerulosclerosis histopathological score and glomerular volume ([1]; high dose (1 mg/kg), 10 weeks): statistically significantly reduced
Serum NEFA compared with Aleglitazar ([2]; 0.2 mg/kg, T-test, P<0.05): significantly reduce
Serum TG compared with Aleglitazar ([2]; 0.2 mg/kg, T-test, P<0.05): significantly reduce
Serum TG and NEFA levels compared with the vehicle group ([2]; Day 8, both 0.2 mg/kg and 0.6 mg/kg): significantly reduce
Total score of renal focal lesions (infract, tubular dilation, tubular obstruction, fibrosis, necrosis) compared with model group [3]: significantly improved
OGTT blood glucose compared with the vehicle group ([4]; 0.05 mg/kg, all time points): did not reach statistical significance
Serum TG levels compared with the vehicle group ([4]; Day 6 and Day 12, Aleglitazar 0.2 mg/kg, Compound 2 at different dosages): significantly lower
Effect on lowering blood glucose compared with Aleglitazar ([4]; random blood glucose, Day 7 and Day 14): slightly weaker effect
OGTT AUC0-120min compared with Aleglitazar ([4]; same dose level (0.2 mg/kg)): higher
